According to patent publication US20070208073A1, “Compositions and methods for treating cardiovascular, cerebrovascular and other vascular disease patients” (priority 2006, published 2007):

Test: Clinical treatment of high risk vascular patients: cholesterol panel (LDL, HDL, triglycerides)
Format: in vivo
Details: for LDL lowering effects on adding adjunct: adjunct added to statin composition, Niacin 500 mg, ezetimibe 10 mg
Description: The protocol of the instant invention was developed for patients that are high risk for a life and/or limb threatening vascular event (MI, CVA, limb/part of limb loss, Aortic dissection/rupture, Renal infarction, etc.) such as DM type I and/or II, CAD, PVD, post MI, post CVA, Hypertriglyceridemia, Hypercholesterolemia, AAA, etc.
It is generally acknowledged that a goal for a DM/CAD patient is to have a LDL cholesterol level less than 70 mg/dL (National Cholesterol Education Program Interim Report Guidelines).
Generally, a patient should start with a low dose of one statin, the dose should then be titrated up to half a maximal dose (titrate means to start a patient at the lowest dose and increase the dose monthly based on having a patient that is less than 3× normal levels for the LFTs, the LDL cholesterol level is not to goal, and there is no positive change in signs, symptoms or studies to evaluate vascular function per disease state). At that point, the patient should be evaluated to see if the LDL cholesterol level is near the goal. If the patient is near the goal, adjuncts should be given to see if the LDL cholesterol level can be further lowered. If the patient is not near the LDL cholesterol goal after titration up to half a maximal dose, the dose of the initial statin should be reduced and a low dose second statin from the other group should be added to the regimen (i.e., if the initial statin is a hydrophilic statin, the second statin should be a lipophilic statin; and vice versa). The second statin level should be titrated up to a half maximal dose if upon taking the statin from the other group (i.e., the second statin), the LDL cholesterol level goal is still not attained. If one is near or at the LDL cholesterol level goal before or after titration of the second statin, the adjuncts can be added to further reduce the LDL cholesterol level.

| Structure (SMILES) | LDL lowering effects on adding adjunct | HDL up (niacin 500 mg a day with the composition of statins) | boost to the HDL levels (niacin 500 mg to 750 mg a day, adult, with two-statin composition) |
| --- | --- | --- | --- |
| O=C1[C@H](CC[C@H](O)c2ccc(F)cc2)[C@@H](c2ccc(O)cc2)N1c1ccc(F)cc1 [ezetimibe] | amplified | – | – |
| O=C(O)c1cccnc1 [niacin] | amplified | at least 10% | ≥ 10% |
